Measurements published in patent US20180214391A1, “USE OF CURCUMIN AND PHARMACEUTICALLY ACCEPTABLE SALT THEREOF” (TARGETPHARMA LABORATORIES (JIANDSU) CO., LTD., priority 2015, published 2018).

Legend:
Assay type in all cases: in vivo, C57BL/6 female mice
T241-VEGF tumors = assay: Antitumor animal model, subcutaneous T241-VEGF tumor: tumor volume and tumor weight; conditions: for final tumor volume compared with the control group / tumor weight compared with the control group: 0.1 ml/each, 14 days; for tumor weight compared with the control group: FIG. 1-B
Excerpt: At present, conventional antitumor drugs are accompanied with toxic side effects while taking effect. In this experiment, we evaluated the antitumor effect of curcumin, and examined the toxicity of the drug by observing changes in animals' body weights after treatment. Given that the chemotherapy drug treatment and course of chemotherapy are closely related to the incident rates of antitumor associated syndrome and its severity, positive control in this experiment used the most advanced antitumor antibodies in the world as a control. […]-VEGF is a tumor model with rapid tumor growth and obvious symptom of tumor associated syndrome. We feed C57BL/6 female mice (SPF grade, 6-8 weeks old, manufactured by Shanghai Silaike Experimental Animal Co., Ltd.) for 2-3 days. The day before subcutaneous inoculation, body hair in back and neck was shaved with a shaving device for the preparation of subcutaneous inoculation of tumor cells. The tumor cells […]-VEGF were collected and washed twice with PBS. After resuspended with PBS and counted, the cells were diluted to 1×10^7 cells/ml with PBS and placed on ice ready for inoculation. Mice were anesthetized with 7% chloral hydrate, 0.1 ml/each, intraperitoneal injection. After the mice were completely anesthetized, the mice were subcutaneously inoculated with tumor cells […]-VEGF, 1×10^6/each, with 1 ml medical disposable syringes in the back and neck. Inoculated mice were randomly allocated (8 in each group), weighed, grouped and administered for treatment. In this experiment, curcumin (manufactured by Sigma, cat. no. […]) was dissolved to 1 mol/L with DMSO and diluted to 2.5 mM, 5 mM and 10 mM with 20% Tween-80 (mixed with PBS) before administration. Detailed information and administration plan is as follows: Control: 20% Tween-80, 0.1 ml/each; The low-dose of curcumin group (Curcumin-2.5 mM): 2.5 mM curcumin, 0.1 ml/each, continuous administration for 14 days; The medium-dose of curcumin group (Curcumin-5 mM): 5 mM curcumin, 0.1 ml/each, continuous administration for 14 days; The high-dose of curcumin group (Curcumin-10 mM): 10 mM Curcumin, 0.1 ml/each, continuous administration for 14 days; Positive control group (PC: anti-VEGF humanized monoclonal antibody, produced by Jiangsu […] Pharmaceutical Co., Ltd.): 2 mg/ml, 0.1 ml/each, twice a week, administration for 4 times. Mice were weighed up every other day. Measuring the tumor volume with vernier caliper every other day after tumor grew in the body. In order to further verify the antitumor effect of each dose of curcumin and its effect on liver and spleen, we handled and dissected the animals in each group the day after administration, got tumors, livers, spleens and kidneys, then weighed up all the tissues and stored them respectively.

[1] = Body weight changes of T241-VEGF tumor-bearing mice after treatment (toxicity); conditions: low, medium and high dose of curcumin (2.5, 5, 10 mM, 0.1 ml/each, 14 days); consistent with normally fed animals
Excerpt: At present, conventional antitumor drugs are accompanied with toxic side effects while taking effect. In this experiment, we evaluated the antitumor effect of curcumin, and examined the toxicity of the drug by observing changes in animals' body weights after treatment. Given that the chemotherapy drug treatment and course of chemotherapy are closely related to the incident rates of antitumor associated syndrome and its severity, positive control in this experiment used the most advanced antitumor antibodies in the world as a control. T241-VEGF is a tumor model with rapid tumor growth and obvious symptom of tumor associated syndrome.
We feed C57BL/6 female mice (SPF grade, 6-8 weeks old, manufactured by Shanghai Silaike Experimental Animal Co., Ltd.) for 2-3 days. The day before subcutaneous inoculation, body hair in back and neck was shaved with a shaving device for the preparation of subcutaneous inoculation of tumor cells. The tumor cells T241-VEGF were collected and washed twice with PBS. After resuspended with PBS and counted, the cells were diluted to 1×10^7 cells/ml with PBS and placed on ice ready for inoculation. Mice were anesthetized with 7% chloral hydrate, 0.1 ml/each, intraperitoneal injection. […]

[2] = system: liver enlargement and splenomegaly caused by T241-VEGF tumor; assay: Liver and spleen coefficients of T241-VEGF tumor-bearing mice; conditions: vs tumor control group, p<0.05
Protocol: We feed C57BL/6 female mice (SPF grade, 6-8 weeks old, manufactured by Shanghai Silaike Experimental Animal Co., Ltd.) for 2-3 days. The day before subcutaneous inoculation, body hair in back and neck was shaved with a shaving device for the preparation of subcutaneous inoculation of tumor cells. The tumor cells T241-VEGF were collected and washed twice with PBS. After resuspended with PBS and counted, the cells were diluted to 1×10^7 cells/ml with PBS and placed on ice ready for inoculation. Mice were anesthetized with 7% chloral hydrate, 0.1 ml/each, intraperitoneal injection. After the mice were completely anesthetized, the mice were subcutaneously inoculated with tumor cells T241-VEGF, 1×10^6/each, with 1 ml medical disposable syringes in the back and neck. Inoculated mice were randomly allocated (8 in each group), weighed, grouped and administered for treatment. In this experiment, curcumin (manufactured by Sigma, cat. no. C1386-10G) was dissolved to 1 mol/L with DMSO and diluted to 2.5 mM, 5 mM and 10 mM with 20% Tween-80 (mixed with PBS) before administration. Detailed information and administration plan is as follows: Control: 20% Tween-80, 0.1 ml/each; The low-dose of curcumin group (Curcumin-2.5 mM): 2.5 mM curcumin, 0.1 ml/each, continuous administration for 14 days; The medium-dose of curcumin group (Curcumin-5 mM): 5 mM curcumin, 0.1 ml/each, continuous administration for 14 days; The high-dose of curcumin group (Curcumin-10 mM): 10 mM Curcumin, 0.1 ml/each, continuous administration for 14 days; Positive control group (PC: anti-VEGF humanized monoclonal antibody, produced by Jiangsu Simcere Pharmaceutical Co., Ltd.): 2 mg/ml, 0.1 ml/each, twice a week, administration for 4 times. Mice were weighed up every other day. Measuring the tumor volume with vernier caliper every other day after tumor grew in the body. […]

[3] = system: anemia symptoms induced by the T241-VEGF tumor animal model; assay: Blood analysis of anemia symptoms (RBC, HGB, HCT, PLT) in T241-VEGF tumor-bearing mice
Protocol: We feed C57BL/6 female mice (SPF grade, 6-8 weeks old, manufactured by Shanghai Silaike Experimental Animal Co., Ltd.) for 2-3 days. The day before subcutaneous inoculation, body hair in back and neck was shaved with a shaving device for the preparation of subcutaneous inoculation of tumor cells. The tumor cells T241-VEGF were collected and washed twice with PBS. After resuspended with PBS and counted, the cells were diluted to 1×10^7 cells/ml with PBS and placed on ice ready for inoculation. Mice were anesthetized with 7% chloral hydrate, 0.1 ml/each, intraperitoneal injection. After the mice were completely anesthetized, the mice were subcutaneously inoculated with tumor cells T241-VEGF, 1×10^6/each, with 1 ml medical disposable syringes in the back and neck. Inoculated mice were randomly allocated (8 in each group), weighed, grouped and administered for treatment. In this experiment, curcumin (manufactured by Sigma, cat. no. C1386-10G) was dissolved to 1 mol/L with DMSO and diluted to 2.5 mM, 5 mM and 10 mM with 20% Tween-80 (mixed with PBS) before administration. Detailed information and administration plan is as follows: Control: 20% Tween-80, 0.1 ml/each; The low-dose of curcumin group (Curcumin-2.5 mM): 2.5 mM curcumin, 0.1 ml/each, continuous administration for 14 days; The medium-dose of curcumin group (Curcumin-5 mM): 5 mM curcumin, 0.1 ml/each, continuous administration for 14 days; The high-dose of curcumin group (Curcumin-10 mM): 10 mM Curcumin, 0.1 ml/each, continuous administration for 14 days; Positive control group (PC: anti-VEGF humanized monoclonal antibody, produced by Jiangsu Simcere Pharmaceutical Co., Ltd.): 2 mg/ml, 0.1 ml/each, twice a week, administration for 4 times. Mice were weighed up every other day. Measuring the tumor volume with vernier caliper every other day after tumor grew in the body.
Handled the animals in each group the day after administration, weighed up, then collected blood (stored in 1.5 ml of EP tubes with 20 ul of 0.5M EDTA) after enucleation of the eyeballs and performed blood analysis. Blood samples were taken to evaluate the effect of curcumin on tumor associated syndrome—red blood cell (RBC), hemoglobin (HGB), hematocrit (HCT) and platelet count (PLT) in mice.

[4] = curcumin low, medium and high dose, positive control 2 mg/ml

Structure (SMILES): COc1cc(/C=C/C(=O)CC(=O)/C=C/c2ccc(O)c(OC)c2)ccc1O [curcumin]
- final tumor volume compared with the control group (T241-VEGF tumors; 2.5 mM curcumin): inhibited to a certain extent
- tumor weight compared with the control group (T241-VEGF tumors; 5 mM curcumin): significantly different
- final tumor volume compared with the control group (T241-VEGF tumors; 5 mM curcumin, p<0.01 or p<0.001): significantly different
- tumor weight compared with the control group (T241-VEGF tumors; 10 mM curcumin): significantly different
- final tumor volume compared with the control group (T241-VEGF tumors; 10 mM curcumin, p<0.01 or p<0.001): significantly different
- growth of T241-VEGF tumors (T241-VEGF tumors; low, medium and high dose of curcumin (2.5, 5, 10 mM, 0.1 ml/each, 14 days), FIG. 1-A): can inhibit the growth
- body weight [1]: not reduced
- liver enlargement (liver coefficient) ([2]; 5 mM curcumin): significantly improve the liver enlargement
- liver enlargement (liver coefficient) ([2]; 10 mM curcumin): significantly improve the liver enlargement
- spleen enlargement (spleen coefficient) ([2]; 10 mM curcumin): significantly improve the spleen enlargement
- platelet (PLT) compared with normal mice ([3]; curcumin at a dose of 10 mM): no statistical differences
- anemia symptoms of tumor-bearing mice compared with control group ([3]; curcumin low, medium and high dose (2.5, 5, 10 mM), positive control 2 mg/ml, FIG. 3): improved remarkably
- hematocrit (HCT) compared with normal mice [3, 4]: no statistical differences
- hemoglobin (HGB) compared with normal mice [3, 4]: no statistical differences
- red blood cell (RBC) compared with normal mice [3, 4]: no statistical differences
